Source: paper PMC6314390 (The Journal of General Physiology, 2019)

Assays:
[1] = target: T1, cardiac troponin C (cTnC) (Homo sapiens, UniProt P63316, C35S/C84S); test: 2D [1H, […]]-HSQC NMR titration; assay type: binding
[2] = target: T1, cardiac troponin C (cTnC); test: 2D [1H, […]]-HSQC NMR titration; assay type: binding; remark: listed apart in the source

| SMILES | Kd [1] | 2D [1H,15N]-HSQC NMR titration [2] |
| --- | --- | --- |
| Clc1cccc(Nc2ccccc2)c1 [3-Cl-DPA, 3-Chlorodiphenylamine] | 6 ± 1 µM | – |
| CC(C)COCC(CN(Cc1ccccc1)c1ccccc1)N1CCCC1 (centres unmarked) [bepridil] | – | As bepridil is titrated into cTnC, NMR signals corresponding to the cNTnC domain move as the conformational equilibrium shifts |
